Reference: patent US5801165A, “Antiinflammatory, immunosuppressive and antialleric 16, 17-alkylidioxy-steroids” (Rhone-Poulenc Rorer Limited, priority 1992, dated 1998)

Legend:
[1] = system: TNF-α release from human peripheral blood monocytes; experiment: Inhibition of tumour necrosis factor (TNF-α) release from human peripheral blood monocytes (lipopolysaccharide challenge); assay type: cell-based; conditions: Monocyte, 18 hours incubation with steroid, then 10 ng/ml lipopolysaccharide for 4 hours, read-out: IC50 (steroid concentration reducing TNF-α release by 50%)
Procedure: INHIBITION OF TUMOUR NECROSIS FACTOR (TNF-α) RELEASE FROM HUMAN PERIPHERAL BLOOD MONOCYTES Monocytes are obtained from blood samples taken from normal human donors. The leukocyte population is washed, applied to a discontinuous metrizamide gradient, and fractionated by centrifugation. The monocyte-enriched interface is aspirated, the cells washed and total and differential counts performed to determine the number of monocytes. Cells are allowed to adhere to 96-well plates for 1 to 2 hours, and thereafter incubated (8×10^5 monocytes/well) with the steroid for 18 hours (37° C. in 5% CO2). Cells are challenged with 10 ng/ml lipopolysaccharide for 4 hours and TNF-αis assayed by use of an enzyme-linked immunosorbent assay. TNF-α quantification is performed with goat anti-human TNF-α being used as the coating antibody, rabbit anti-human TNF-α as the second antibody, and goat anti-rabbit IgG horseradish peroxidase as the detection antibody. The IC50 is the steroid concentration reducing TNF-α release by 50%.

[2] = system: tyrosine aminotransferase activity, rat liver H4IIE cells; experiment: Induction of tyrosine aminotransferase activity in rat liver H4IIE cells; assay type: cell-based; conditions: overnight incubation, maximum of dexamethasone as reference, method defines ED50 = 50% of the maximum achievable increase, read-out: IC50 (induction of tyrosine aminotransferase activity)
Procedure: INDUCTION OF TYROSINE AMINOTRANSFERASE ACTIVITY
Rat liver H4IIE cells are cultured for 4 days until the cells are confluent. The medium is replaced by fresh medium, containing steroid under test (0-100 nM) which is added to triplicate wells. After overnight incubation as above, the medium is removed and the cells are lysed and the extract is equilibrated at 37° C. with α-ketoglutarate and pyridoxal phosphate in phosphate buffer, pH 7.3, in a final volume of 1 ml. Tyrosine aminotransferase activity is initiated by adding tyrosine and incubating at 37° C. for 10 minutes. The reaction is stopped by adding aqueous sodium hydroxide solution (10M). The ultra-violet absorbance of the para-hydroxybenzaldehyde is measured by a plate reader at 340 nm. The maximal absorbance change achieved with the standard (dexamethasone) is used as a reference. The absorbance change for each concentration of steroid under test is calculated as a fraction of the maximal absorption achievable and plotted against steroid concentration. The ED50 is determined as the concentration causing an increase in tyrosine aminotransferase activity of 50% of the maximum achievable. IC50 =0.3 nM

[3] = system: Sephadex-induced lung oedema in rats; experiment: animal or person; assay type: in vivo, male rats (Sprague-Dawley strain)
Procedure: INHIBITION OF RAT LUNG OEDEMA IN-VIVO:
Test compounds are suspended in 1% carboxymethyl-cellulose/0.2% Tween 80 at double the required strength and sonicated to form a suspension. This is administered intra-tracheally (i.t.) to male rats (Sprague-Dawley strain, 6 in each group, each weighing about 350 g) at 0 hours and 24 hours, with the first dose being co-administered with saline and the second with Sephadex G200 [cross-linked dextran] (10 mg/ml) giving a final Sephadex concentration of 5 mg/ml. I.t. dosing is carried out under halothane anaesthesia (4% in oxygen, at 4 litres/minute for 3 minutes). At 48 hours, the rats are killed, final body weight is recorded, and the lungs and thymus are removed and weighed. The doses reducing the Sephadex-induced oedema and the thymus weight by 30% (ED30) are calculated. Airway selectivity is defined as the ratio of thymus involution (ED30) and inhibition of lung oedema (ED30).

[4] = system: PMA-induced mouse ear oedema; experiment: Inhibition of PMA-induced mouse ear oedema in-vivo; set-up: species or system female mice (CD1 strain); conditions: epicutaneous, 18 hours before PMA 1.25 μg/ear; killed 4 hours later
Procedure: INHIBITION OF MOUSE EAR OEDEMA IN-VIVO (i) Steroids are dissolved in acetone and administered epicutaneously to the ventral and dorsal surfaces of the right ear pinna of female mice (CD1 strain, 5 in each group, each weighing about 20 g). 18 Hours later, phorbol myristate acetate (PMA, 1.25 μg/ear) in acetone is applied epicutaneously to the right ear. The mice are killed 4 hours later, and a 5 mm disc is punched out of each ear and weighed. The dose reducing PMA-induced oedema by 50% (ED50) is determined from linear regression.

[5] = system: antigen-induced mouse ear oedema; experiment: Inhibition of antigen-induced mouse ear oedema in-vivo (ovalbumin sensitised mice); conditions: topical, 18 hours before intradermal antigen challenge; killed 1 hour later
Procedure: INHIBITION OF MOUSE EAR OEDEMA IN-VIVO (ii) Ovalbumin sensitised mice are challenged with antigen injected into the right ear intradermally under 4% halothane anaesthesia (4% in oxygen, 4 litres/minute for 2 minutes) 18 hours after topical treatment with the steroids [as above in (i)]. The mice are killed 1 hour later, and a 5 mm disc is punched out of each ear, and weighed. The dose reducing the oedema by 50% (ED50) is determined as above.

CCC[C@@H]1O[C@@H]2C[C@H]3[C@@H]4C[C@H](F)C5=CC(=O)CC[C@]5(C)[C@@]4(F)[C@@H](O)C[C@]3(C)[C@]2(SC)O1
IC50 [1]: 0.25 nM
ED50 (induction of tyrosine aminotransferase activity) [2]: 0.3 nM
ED30 ([3]; Rattus norvegicus, inhaled or nasal, i.t. at 0 and 24 hours, rats killed at 48 hours, dose reducing Sephadex-induced oedema by 30%): 3 µg/kg
Thymus involution: ED30 ([3]; rat, in vivo, 2880 min): 2200 µg/kg
Airway selectivity (ratio of thymus involution ED30 and inhibition of lung oedema ED30) ([3]; ratio ED30 thymus involution / ED30 lung oedema, i.t., rat): 733
Inhibition of PMA-induced mouse ear oedema: ED5O [4]: 0.0082 μg/ear
Inhibition of antigen-induced mouse ear oedema: ED50 [5]: 0.026 μg/ear
